According to patent publication US20120283175A1, “ANTIBACTERIAL COMPOSITIONS” (Achaogen, Inc., priority 2009, published 2012):
Values after ≈ are worked out from the molar mass of the structure shown. Values joined by “and” are separate entries in the source; they are usually repeats but may differ in a detail not shown here. Identical values can stand only once. “Also recorded” adds a separate entry of the source. Like-named read-outs stand apart in the source and are kept apart here.

How the values were obtained:
E. coli ATCC25922 = assay: MIC by broth microdilution, wild type strain ATCC25922; assay type: cell-based
Description: (§1) Bacterial isolates were cultivated from −70° C. frozen stocks of the indicated strains by overnight passages at 35° C. in ambient air on Mueller-Hinton agar (Beckton Dickinson, Franklin Lakes, N.J.). Minimum Inhibitory Concentrations (MICs) were determined by the broth microdilution method in accordance with the Clinical and Laboratory Standards Institute (CLSI) guidelines. In brief, organism suspensions were adjusted to a 0.5 McFarland standard to yield a final inoculum between 3×10^5 and 7×10^5 colony-forming units (CFU)/mL. Drug dilutions and inocula were made in sterile, cation adjusted Mueller-Hinton Broth (Beckton Dickinson). An inoculum volume of 100 μL was added to wells containing 100 μL of broth with 2-fold serial dilutions of drug. All inoculated microdilution trays were incubated in ambient air at 35° C. for 18-24 hours. Following incubation, the lowest concentration of the drug that prevented visible growth (OD600 nm <0.05) was recorded as the MIC.

envA+ (D21) E. coli = assay: MIC by broth microdilution, isogenic envA+ strain; assay type: cell-based
Description: as §1

envA1 (D22) E. coli = assay: MIC by broth microdilution, isogenic envA1 mutant strain; assay type: cell-based; settings: for MIC: Strain envA1 (D21); for Fold decrease in MIC (envA+/envA1): envA+ vs envA1 E. coli
Description: as §1

[1] = Pharmacokinetic studies of LpxCi-4 alone or in the presence of vancomycin; assay type: in vivo; settings: for AUC / Cmax / Tmax / half-life: in vivo, 10 mg/kg
Description: This would result in a lower static dose for the LpxC inhibitor and apparent synergy. In order to address this, pharmacokinetic studies of LpxCi-4 either alone or in the presence of vancomycin at 220 mg/kg were performed. […] The half-life (HL_Lambda_z), time to maximum concentration (Tmax), maximal concentration (Cmax), and area under the concentration-time curve (AUC) for LpxCi-4 are provided.

[2] = tested on: P. aeruginosa (ATCC27853); settings: for ΔLogCFU vs 24 hr / Log CFU Mean: 24 hr; for Log CFU Mean: n=5; for in vivo synergy with erythromycin: erythromycin 60 mg/kg
Excerpt: (§2) The model was run essentially as described by Craig and others (see Gudmundsson et al., “Murine Thigh Infection Model,” Handbook of Animal Models of Infection, M. A. Sande and O. Zak, Eds.; London: Academic Press, 1999, pp 137-144). Briefly, mice were rendered neutropenic prior to infection with 2 doses of cyclophosphamide, and then infected intramuscularly in the thigh with inocula of 10^3-10^5 CFU of either K. pneumo. (ATCC43816) or P. aeruginosa (ATCC27853). Antibiotics or vehicle alone as a negative control were administered twice at 2 hrs and 14 hrs post-infection. The animals were kept neutropenic for the duration of the experiment in order to minimize the effect of white blood cells on the infection such that the microbiological readout measures the in vivo interaction of drugs and bacteria. At 24 hrs post-infection, thighs were harvested, homogenized, and plated to measure the number of CFUs surviving per thigh. Thighs from a subset of animals were also harvested 2 hrs post-infection to record the CFUs present just prior to the first antibiotic treatment (pre-treatment).
This table focuses on the sensitive part of the LpxCi-4 dose response curve (30 mg/kg) by examining the mean log CFU at 0 or 24 hours, as well as the log change in CFU at 24 hours relative to zero hours (“ΔLogCFU vs […]”). Data is given for animals treated with vehicle, LpxCi-4 at 30 mg/kg, a second agent alone at the indicated doses or the combination of LpxCi-4 at 30 mg/kg plus the second agent at the indicated dose. The standard errors for each measurement are also given (n=5 animals/group). By comparing the observed drop in CFU of the combination with the sum of the drop in CFU associated with each of the two agents given separately, one can determine whether the combination is, in fact, synergistic in vivo.

K. pneumo. (ATCC43816) = assay: Neutropenic thigh in vivo efficacy model (mice); set-up: species or system Klebsiella pneumoniae; Static Dose, LpxC cmpd / Static Dose, LpxC in combination: unit not given here
Excerpt: as §2

Yersinia enterocolitica = assay: Checkerboard synergy assay with LpxCi-4; assay type: cell-based; settings: combination with LpxCi-4
Excerpt: (§3) One classic method for assessing synergy, referred to as the checkerboard assay, is used to predict the efficacy of antibacterial agents, and is described by Scribner et. al., (Antimicrobial Agents and Chemotherapy 21(6):939-943 (1982)) and in Goodman & Gilman (The Pharmacological Basis of Therapeutics, Sixth Edition, pp. 1097-1098 (1980)). The checkerboard assay involves serial two-fold dilutions of the antibiotics individually and in combination in broth, which is then inoculated with the microorganism to be tested. After incubation, the minimum inhibitory concentration (MIC) of each drug used individually and in combination is determined (N.B., the MIC is the lowest concentration of the drug that inhibits growth in the medium). Synergism is indicated by a decrease in the MIC of each drug when used in combination. Antagonism is indicated by an increase in the MIC of either or both drugs when used in combination. Alternate methods of assessing synergy are reviewed in Greco, et al., Pharmacological Reviews 47(2):[…] (1995), incorporated herein by reference in its entirety.
(§4) Partial or full inhibition of LpxC should compromise the outer membrane and thus allow these synergizing agents to enter the cells and exert an antibacterial effect at concentrations where cells untreated with an LpxC inhibitor are unaffected. As a first step, checkerboard synergy assays for a variety of antibacterial agents were perform with several LpxC inhibitors, on several species of gram negative bacteria.
as §1
(§5) Standard checkerboard assays were performed with a combination of the indicated agents and LpxCi-4. Table 2 provides the FICI calculated according to standard techniques.

Escherichia coli = assay: Checkerboard synergy assay with LpxCi-4; assay type: cell-based; settings: combination with LpxCi-4
Excerpt: as §3, §4, §1, §5

Pseudomonas aeruginosa = assay: Checkerboard synergy assay with LpxCi-4; assay type: cell-based; settings: combination with LpxCi-4 (3936); Pseudomonas aeruginosa (ATCC27853 in text)
Excerpt: as §3, §4, §1, §5

Klebsiella pneumoniae = assay: Checkerboard synergy assay with LpxCi-4; assay type: cell-based; settings: combination with LpxCi-4
Excerpt: as §3, §4, §1, §5

[3] = LpxCi-4 (10 mg/kg) + vancomycin (220 mg/kg)
[4] = first block of Table 5, mg/kg/day b.i.d.: 3936 30, Rif. 30, Azith. 50
[5] = second block of Table 5, mg/kg/day b.i.d.: 3936 30, Eryth. 60, Dapto. 3, Oxacil. 100
[6] = strain 27853, combination agent Rifampin
[7] = strain 27853, combination agent Vanco
[8] = strain 43816, combination agent Rifampin

CC(C)(N)[C@H](NC(=O)c1ccc(C#CC#CC2CC2)cc1)C(=O)NO [LpxCi-4, (S)—N-(3-amino-1-(hydroxyamino)-3-methyl-1-oxobutan-2-yl)-4-(cyclopropylbuta-1,3-diynyl)benzamide]
MIC (E. coli ATCC25922): 0.015 µg/mL (≈ 0.0442 µM)
MIC (envA+ (D21) E. coli): 0.015 µg/mL (≈ 0.0442 µM)
MIC (envA1 (D22) E. coli): ≦0.004
Fold decrease in MIC (envA+/envA1) (envA1 (D22) E. coli): ≧4
AUC [1, 3]: 6870 ng·h/mL
Cmax [1, 3]: 2630 ng/mL
Tmax [1, 3]: 0.25 h
half-life [1, 3]: 3.27 h
AUC ([1]; LpxCi-4 (10 mg/kg) alone): 6030 ng·h/mL
Cmax ([1]; LpxCi-4 (10 mg/kg) alone): 2200 ng/mL
Tmax ([1]; LpxCi-4 (10 mg/kg) alone): 0.5 h
half-life ([1]; LpxCi-4 (10 mg/kg) alone): 2.63 h
PK / AUC of LpxCi-4 in the presence vs absence of vancomycin ([1]; vancomycin at 220 mg/kg, 220 mg/kg): not significantly affected; also recorded: essentially identical
ΔLogCFU vs 24 hr [2, 4]: −1.57
Log CFU Mean [2, 4]: 6.17
ΔLogCFU vs 24 hr [2, 5]: −0.81
Log CFU Mean [2, 5]: 6.83
in vivo synergy with daptomycin ([2]; bacterial strain ATCC27853): does not exhibit in vivo synergy
in vivo synergy with rifampin ([2]; bacterial strain ATCC27853): in vivo synergy
in vivo synergy with vancomycin ([2]; bacterial strain ATCC27853): in vivo synergy
in vivo synergy with erythromycin ([2]; bacterial strain ATCC27853): modest in vivo synergy
in vivo synergy with erythromycin ([2]; bacterial strain ATCC27853, listed as LPxCi-4): only a very modest shift in the dose response curve
in vivo synergy with daptomycin ([2]; bacterial strain ATCC27853, listed as 3936): no measurable in vivo synergy
drop in CFU relative to vehicle ([2]; each agent at 30 mg/kg): 1.57 log
Static Dose, LpxC cmpd ([2]; strain 27853, LpxC compound alone): 60 and 42 and 50
Static Dose, LpxC in combination ([2]; strain 27853, combination agent Daptomycin): 50
Fold Shift Static Dose ([2]; strain 27853, combination agent Erythromycin): <1.5x
Static Dose, LpxC in combination ([2]; strain 27853, combination agent Erythromycin (60 mg/kg in text)): 40
Static Dose, LpxC in combination ([2]; strain 27853, combination agent Oxacillin): 50
Fold Shift Static Dose [2, 6]: 1.9x
Static Dose, LpxC in combination [2, 6]: 22
Fold Shift Static Dose [2, 7]: 2.4x
Static Dose, LpxC in combination [2, 7]: 25
shift in static dose ([2]; with rifampin, P. aeruginosa ATCC27853): 2 fold
in vivo synergy with rifampin (K. pneumo. (ATCC43816); bacterial strain ATCC43816): in vivo synergy
in vivo synergy with vancomycin (K. pneumo. (ATCC43816); bacterial strain ATCC43816): in vivo synergy
Static Dose, LpxC cmpd (K. pneumo. (ATCC43816); strain 43816, LpxC compound alone): 36 and 33
Fold Shift Static Dose (K. pneumo. (ATCC43816); [8]): 4x
Static Dose, LpxC in combination (K. pneumo. (ATCC43816); [8]): 9
Fold Shift Static Dose (K. pneumo. (ATCC43816); strain 43816, combination agent Vanco): 6.6x
Static Dose, LpxC in combination (K. pneumo. (ATCC43816); strain 43816, combination agent Vanco (440 mg/kg/day)): 5
shift in static dose (K. pneumo. (ATCC43816); with rifampin, K. pneumoniae ATCC43816): 4 fold

CO[C@@H]1[C@@H](OC(N)=O)[C@@H](O)[C@H](Oc2ccc3c(O)c(NC(=O)c4ccc(O)c(CC=C(C)C)c4)c(=O)oc3c2C)OC1(C)C [Novobiocin, novobiocin]
FICI index (Yersinia enterocolitica): ≦0.63
FICI index (Escherichia coli): ≦0.25
FICI index (Pseudomonas aeruginosa): no effect
FICI index (Klebsiella pneumoniae): ≦0.38

CCCCCCCCCCNCCN[C@@]1(C)C[C@H](O[C@H]2[C@H](Oc3c4cc5cc3Oc3ccc(cc3Cl)[C@@H](O)[C@@H](NC(=O)[C@@H](CC(C)C)NC)C(=O)N[C@@H](CC(N)=O)C(=O)N[C@H]5C(=O)N[C@H]3C(=O)N[C@H](C(=O)N[C@H](C(=O)O)c5cc(O)c(CNCP(=O)(O)O)c(O)c5-c5cc3ccc5O)[C@H](O)c3ccc(c(Cl)c3)O4)O[C@H](CO)[C@@H](O)[C@@H]2O)O[C@@H](C)[C@H]1O [Telavancin, telavancin]
MIC (E. coli ATCC25922): > 128 µg/mL
MIC (envA+ (D21) E. coli): > 128 µg/mL
MIC (envA1 (D22) E. coli): 16 µg/mL (≈ 9.11 µM)
Fold decrease in MIC (envA+/envA1) (envA1 (D22) E. coli): ≧8
FICI index (Yersinia enterocolitica): ≦0.5
FICI index (Escherichia coli): no
FICI index (Pseudomonas aeruginosa): no effect
FICI index (Klebsiella pneumoniae): ≦0.31
